The subject of experiment [1] is MDA-MB-231 cells. In words: Staining of endosomes with LysoTracker (puncta per cell). The settings on record: MDA-MB-231, 1 h with peptide (X = K(Ac), WW, FFLIP at 10, 1.5, 1.5 μM), LysoTracker Green DND-26 500 nM 5 min, biological triplicates. Type of experiment: cell-based, human. How it is done:
Given that hydrophobicity of the d(X)TAT peptides appears to contribute to their membrane permeation activities, we next sought to establish whether this relationship could be recapitulated with membrane models, i.e. lipid bilayers. To establish which membrane system to test, we first aimed to test whether d(X)TAT peptides generally recapitulate the mechanism of cell entry previously determined with dfTAT. For this purpose, the delivery of TMR-k5 was performed in cells transfected with dominant-negative (DN) rab7(T22N), a protein that disrupts trafficking from early endosomes to late endosomes[29],[30]. For these experiments, d(WW)TAT and d(FFLIP)TAT were chosen as two “high activity/hydrophobicity” d(X)TAT representatives. […] In this case, approximately 5% of cells remained positive for TMR-k5 nuclear staining. […] To further probe the cell penetration mechanism, the number of endosomal organelles stained by Lysotracker in cells before and after delivery was quantified. The rationale behind this assay is that lysotracker accumulates in acidified organelles, typically late endosomes and lysosomes, that endosomal membrane leakage causes an increase of endosomal pH (presumably via leakage of luminal H^+ into the cytosol), and that, consequently, endosomes rendered potentially leaky by d(X)TAT peptides will not be stained by lysotracker.
For the quantification of acidic vesicles, cells were treated with LysoTracker Green DND-26 (500 nM) for 5 min. Alternatively, cells were pretreated with L-Leu-L-Leu methyl ester (LLOME; Sigma-Aldrich) incubated at 1 mM for 10 min, or bafilomycin (Sigma-Aldrich) at 1 µM for 4 h, and then stained with LysoTracker. Likewise, cells were pretreated with d(X)TAT peptides (X = K(Ac), WW, or FFLIP at 10, 1.5, and 1.5 μM) for 1 h. Cells were then washed an stained with LysoTracker immediately or after 12 h incubation in DMEM. For all conditions, fluorescence microscopy images were acquired using the 100× objective on an Olympus IX-81 microscope. ImageJ was used to calculate the number of LysoTracker-stained puncta per cell, as well as the area of each individual puncta. This analysis was performed for 50 cells imaged for each condition and reproduced in biological triplicates.

Experiment [2] deals with MDA-MB-231 cells. The experiment is described as follows: Delivery of TMR-k5 probe into live cells (nuclear staining). Type of experiment: cell-based, human. The settings on record: MDA-MB-231, d(X)TAT at various concentrations + TMR-k5 20 μM, 1 h, fluorescence microscopy, biological triplicates. The source says:
To test the relative delivery efficiency of the d(X)TAT peptides, the cell lines MDA-MB-231 (epithelial-like, human breast cancer, spindle-shaped) and Neuro-2a (mouse neuroblastoma with neuronal and amoeboid stem cell morphology) were chosen. These cell lines are routinely used in cancer research, neuroscience, and toxicology. In the context of this study, we rationalized that the distinct differences in origin and characteristics between MDA-MB-231 and Neuro-2a properties may be useful to assess the generality of the results obtained. MDA-MB-231 or Neuro-2a cells were incubated with d(X)TAT peptides at various concentrations and TMR-k5 (20 μM) for 1 h. Cells were then washed, incubated with the DNA stain Hoechst and the live/dead marker SYTOX green (or SYTOX blue), and imaged by fluorescence microscopy. The localization of TMR-k5 in individual nuclei was then assessed by measuring the overlap between TMR and Hoechst signals (Fig. 2, Figure S13). […] This is because, in our experience, dfTAT and dfTAT analogs display a threshold behavior where, below a certain endosomal concentration, endosomal leakage is not achieved. In contrast above this threshold most late endosomes are permeabilized. […] Our rationale was therefore to titrate cells with different concentrations of d(X)TAT agents, monitor how many cells display cytosolic/nuclear delivery of TMR-k5, and compare the different d(X)TAT peptides.
MDA-MB-231 and Neuro2a cells obtained from ATCC (breast cancer-derived epithelial) were cultured in humidified atmosphere at 5% CO2 and 37 °C. Cells were seeded in plastic 48-well plates (Fisher) for quantitative analysis or 8-well Labtek II plates (Fisher) for qualitative imaging at 100× magnification. The cells were grown to 80–90% confluency in a 37 °C humidified atmosphere containing 5% CO2. Cells were washed three times with Leibovitz’s L15 media (L15) (Fisher). Cells were then incubated with peptide and 20 µM of the TMR-k5 pentalysine probe at 37 °C for 1 h. This was followed by washing the cells three times with L15 supplemented with heparin (Sigma-Aldrich) (1 mg/mL) and an extra L15 wash. […] Additionally, the cell permeable dye Hoechst 33342 (Thermo Fisher Scientific o) was used for nuclear staining. Cells were imaged using an EVOS FL Auto 2 inverted microscope (Thermo Fisher Scientific). The microscope is equipped with a heating chamber maintained at 37 °C. Images were acquired using bright field imaging and five fluorescence filter sets: CFP (Ex = 436 ± 10 nm, Em = 480 ± 20 nm), RFP (Ex = 560 ± 20 nm, Em = 630 ± 35 nm), FITC (Ex = 488 ± 10 nm Em = 520 ± 20 nm), DAPI (Ex = 350 ± 50 nm, Em = 460 ± 25 nm), […]. For image viewing and processing individual images, the Celleste 4.0 software (Thermo Fisher Scientific) was used. Nuclear regions in 20× images where identified using Hoechst staining (the quantification process is described in Figure S13). The intensity of these objects in the TMR channel was then determined using the Celleste software. Cells stained by the SYTOX or DRAQ dyes were considered dead and not counted as positive for delivery. Cells displaying a nuclear TMR-k5 fluorescence above the fluorescence threshold determined for TMR-k5 alone were considered positive for delivery (if excluding SYTOX or DRAQ7 stain, and if visually showing stained nucleoli for confirmation of intracellular localization). The percentage of cells positive for TMR-k5 nuclear staining was then calculated, using Hoechst-stained cells to count the total number of cells present. […] Instead, this assay quantifies the number of cells in which the nuclear fluorescence of TMR-k5 is above a detection threshold. This threshold is dependent on the microscope, imaging conditions, and the concentration of TMR-k5 used during incubation (Figure S13). The reproducibility of all the experiments was assessed by performing experiments with independent batches of cell cultures on three different days (i.e., biological triplicates). […]

“Also recorded” adds a separate entry of the source. Ends that are not written are not given here.

As for “d(K(Ac))TAT: disulfide dimer of CXRKKRRQRRRG with X = lysine conjugated to an acetyl group (CK(Ac)RKKRRQRRRG-NH2; also: disulfide dimer)”, the “lysotracker stained endosomes (puncta per cell) immediately after incubation” value in the experiment with MDA-MB-231 cells [1] is “did not affect lysotracker staining”. In addition, the “TMR-k5 delivery activity (cells with TMR-k5 nuclear staining)” value in the experiment with MDA-MB-231 cells [2] is listed as “little to no TMR-k5 delivery is detected; also recorded: no detectable delivery activity; also recorded: does not have a delivery activity detectable”.

The record behind these values is article PMC9510126, “Hydrophobicity is a key determinant in the activity of arginine-rich cell penetrating peptides” (Scientific Reports, 2022).
